# Patent US20220380317A1, “COMPOUNDS HAVING ANTIMALARIAL ACTIVITY” (NANYANG TECHNOLOGICAL UNIVERSITY, priority 2019, published 2022)
# Where two headings read alike, the source gives them in different places.
# How the values were obtained:
# [1] = tested on: P. falciparum; assay: in vitro P. falciparum growth inhibition / dose response assay (Hoechst 33342 FACS read out); format: cell-based, Plasmodium falciparum; details: for IC50: in vitro, FIG. 7B, read-out: affinity (IC50 values, in vitro anti-parasitic activity)
# Experimental: For the in vitro P. falciparum culture, P. falciparum 3D7, Dd2, K1, T994, W2, and W2mef cell lines were obtained from Malaria Research and Reference Reagent Resource Center (MR4), BEI Resources. Artemisinin-resistant and -sensitive parasite field isolates from Ratanakiri, Cambodia were obtained by request from the Tracking Resistance to Artemisinin Collaboration (TRAC). In vitro parasite culture was performed as described by Maier and Rug (Methods Mol Bio 2013; 923:3-15). Briefly, cultures were maintained with RPMI medium supplemented with Albumax II; […] RPMI-1640 (Gibco, Life Technologies), 2.5 g/L Albumax II (Gibco, Life Technologies), 2.3 g/L Sodium Bicarbonate (Sigma-Aldrich), 50 mg/L Hypoxanthine (Sigma-Aldrich), 10 mg/L Gentamicin Sulphate (Gibco, Life Technologies), in 2-3% haematocrit human RBCs collected via patient donation at National University Hospital, Singapore. Cultures were maintained with a special mixed gas of 3% O2, 5% CO2, balanced with N2 (SOXAL, Air Liquide, Singapore). For cultures grown in plate format, plates were kept in a sealed bag filled with mixed gas. Parasitemia and parasite stages were checked by microscopy of blood smears fixed in Methanol (Merck), stained in Giemsa (Sigma-Aldrich) in 1× Tris-Base, Acetic Acid, EDTA (TAE) buffer (analytical grade, Fischer US).
# Synchronization of ring stage parasites (0-20 hour IDC) was done by incubating packed RBC culture with 5% (w/v) D-Sorbitol (Sigma-Aldrich) at 37° C. for 20 minutes. Cultures were washed with incomplete RPMI (iRPMI), 2,200 rpm, 3 minutes, brake 1 to remove sorbitol and cell debris. Late stage parasites (30-48 hour IDC) were isolated using a 68% Percoll (MP Biomedicals) gradient prepared with 1× Phosphate Buffer Saline (PBS) and iRPMI. Packed parasite cultures were diluted with iRPMI 1:5, then layer carefully atop of the 68% Percoll gradient in a 15 mL Falcon tube. Tubes were spun at 2,200 rpm for 20 minutes, brake 0. […]
# In a mid-throughput compound library screen, compounds were screened for antiparasitic activity by growth rate over a duration of 60 hrs (slightly over one IDC). ˜1% parasitemia of 0-3hpi ring stage culture in 2% haematocrit were treated with 10 μM of library compound (0.1% final DMSO concentration), and seeded into 96well flat bottom plates. […] After 60 hr of treatment (to allow ring stages to develop a more defined morphology), taken for Fluorescent-activated Cell Sorting (FACS) read out.
# Assay read out was done by staining with Hoechst 33342 (Excitation 350 nm, Emission 461 nm; Molecular Probes, Life Technologies), a cell permeable DNA staining dye. […] Cells were read via a High Throughput Sampler (HTS)-coupled FACS machine (BD Biosciences) in the UV laser excitation channel (Excitation 355 nm). […]
# [2] = tested on: P. berghei; assay: in vivo four-day suppression test; set-up: species or system Balb/c mice; details: for dose required to achieve >95% killing: once daily Days 1 to 4, parasitemia measured on Day 5
# Experimental: Four-week-old Balb/c mice were challenged with […] P. berghei parasites intravenously on Day 0. […] Parasitemia was measured on Day 5, and the following formula was used to measure in vivo activity;
# [3] = molecular target: T1, Falcilysin (FLN, PlasmoDB geneID: PF3D7_1360800) (Plasmodium falciparum, UniProt Q76NL8); assay: cell-free enzymatic inhibition assay with recombinant FLN and fluorescent-quencher peptide substrate; format: biochemical; details: 1 mM, fluorescence at 490 nm over 7 min
# T1 construct: gift from Zbynek Bozdech, School of Biological Sciences, NTU
# Experimental: In order to validate the results obtained from the CETSA screen, a cell-free enzymatic inhibition assay using recombinant-FLN and a fluorescent-quencher tagged 10-peptide substrate of FLN was employed. Recombinant FLN and the Dabcyl-[…] (SEQ ID NO:3)-Edans fluorescent-quencher peptides were a gift from Zbynek Bozdech of School of Biological Sciences, NTU. Briefly, recombinant FLN at a final concentration of 0.3 μg/ml in assay buffer (50 mM Bis-tris, pH 7.2) was prepared. […] Just prior to the read out, recombinant FLN in assay buffer was added. VO was determined by monitoring fluorescence (Aex=340 nm, Aem=490) over 7 min on a Tecan Infinite M200 Pro plate reader. Assays were done with two technical replicates each. Data of three biological replicates were averaged and plot on Microsoft excel to compare the slope of the fluorescence signal.
# [4] = tested on: P. berghei; assay: in vivo growth suppression test in P. berghei BALB/c mice model; details: 30 mg/kg intraperitoneally once daily for four days
# Experimental: In a next step, the compound's in vitro activity was validated in vivo in a P. berghei BALB/c mice model. A growth suppression test was done by intraperitoneally infecting 4-week old Balb/c mice with GFP-expressing parasites, and allowing the parasitemia to rise to 3-4%. Subsequently, different doses of the compound were administered intraperitoneally once daily over four days.
# Tail snips were done once daily to obtain blood samples for the measurement of parasitemia by FACS.
# [5] = tested on: lung, kidney, and liver epithelial cells; assay: toxicity in epithelial cells; format: cell-based; details: at 1000-folds in excess of the therapeutic dose
# T1 sequence (Q76NL8 whole entry): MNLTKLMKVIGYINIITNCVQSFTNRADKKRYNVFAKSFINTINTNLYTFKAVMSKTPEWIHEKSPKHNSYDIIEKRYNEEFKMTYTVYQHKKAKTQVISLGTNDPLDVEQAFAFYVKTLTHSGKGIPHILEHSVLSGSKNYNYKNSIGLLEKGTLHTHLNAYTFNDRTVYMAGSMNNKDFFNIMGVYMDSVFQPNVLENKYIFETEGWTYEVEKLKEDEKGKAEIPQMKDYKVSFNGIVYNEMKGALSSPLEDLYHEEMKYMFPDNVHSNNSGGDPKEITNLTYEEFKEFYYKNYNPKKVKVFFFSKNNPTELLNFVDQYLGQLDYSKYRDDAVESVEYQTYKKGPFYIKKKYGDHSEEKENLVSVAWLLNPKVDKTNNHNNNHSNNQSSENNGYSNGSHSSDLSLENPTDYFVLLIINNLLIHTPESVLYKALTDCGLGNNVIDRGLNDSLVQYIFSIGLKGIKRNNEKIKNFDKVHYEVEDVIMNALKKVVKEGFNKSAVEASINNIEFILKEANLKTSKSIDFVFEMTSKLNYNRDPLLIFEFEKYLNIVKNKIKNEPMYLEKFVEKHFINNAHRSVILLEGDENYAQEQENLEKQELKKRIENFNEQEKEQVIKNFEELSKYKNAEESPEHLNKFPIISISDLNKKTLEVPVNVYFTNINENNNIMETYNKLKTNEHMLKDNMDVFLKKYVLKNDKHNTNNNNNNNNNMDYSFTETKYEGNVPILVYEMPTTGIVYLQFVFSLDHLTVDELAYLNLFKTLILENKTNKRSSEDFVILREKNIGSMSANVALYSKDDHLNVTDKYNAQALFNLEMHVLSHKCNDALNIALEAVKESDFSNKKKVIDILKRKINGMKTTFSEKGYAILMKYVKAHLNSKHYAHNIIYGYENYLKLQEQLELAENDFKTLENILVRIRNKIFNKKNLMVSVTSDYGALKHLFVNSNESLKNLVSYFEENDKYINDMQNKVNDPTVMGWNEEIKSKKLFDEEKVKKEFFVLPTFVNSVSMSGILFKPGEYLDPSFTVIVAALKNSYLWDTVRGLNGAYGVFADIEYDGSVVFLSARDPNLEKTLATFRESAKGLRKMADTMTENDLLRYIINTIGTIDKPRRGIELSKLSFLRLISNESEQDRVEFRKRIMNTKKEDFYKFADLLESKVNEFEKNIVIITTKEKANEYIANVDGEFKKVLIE
molecule,measurement,setting,value
"1-({6-[(4,5-Diphenyl-1-imidazolinyl)methyl]-2-pyridyl}methyl)-4,5-diphenylimidazoline [SAR 14]",in vitro potency compared with A1,[1],more potent
same,dose required to achieve >95% killing,[2],30 mg/kg
"1-({3-[(4,5-Diphenyl-1-imidazolinyl)methyl]-5-methoxyphenyl}methyl)-4,5-diphenylimidazoline [SAR 13]",in vitro potency compared with A1,[1],more potent
same,in vivo activity in 4-day suppressive test,[2]; 20 mg/kg,highest activity
same,dose required to achieve >95% killing,[2],20 mg/kg
"C1=N[C@@H](c2ccccc2)[C@H](c2ccccc2)N1Cc1cccc(CN2C=N[C@@H](c3ccccc3)[C@@H]2c2ccccc2)c1 [imidazole variant, (4S,5S)-1-[(m-{[(4S,5S)-4,5-Diphenyl-1-imidazolyl]methyl}phenyl)methyl]-4,5-diphenylimidazole]",IC50,[1],4690 nM
C[C@@H]1C[C@@H]([C@H](O)CC2CC(=O)NC(=O)C2)C(=O)[C@@H](C)C1 [cyclohexamine],proteolytic activity of FLN,[3],No inhibition of proteolytic activity
C[C@@H]1CC[C@H]2[C@@H](C)C(=O)O[C@@H]3O[C@@]4(C)CC[C@@H]1[C@]32OO4 [artemisinin],reduction of parasitemia,[4],unable to further reduce parasitemia beyond day 3
"C1=NC(c2ccccc2)C(c2ccccc2)N1Cc1cccc(CN2C=NC(c3ccccc3)C2c2ccccc2)c1 (centres unmarked) [A1, 1-({m-[(4,5-Diphenyl-1-imidazolinyl)methyl]phenyl}methyl)-4,5-diphenylimidazoline]",IC50,[1]; Plasmodium falciparum,120 nM
same,dose required to achieve >95% killing,[2],30 mg/kg
same,toxicity,[5],Toxicity was not observed
